Results from patent US20060052298A1, “Use of stable glutamine derivatives to improve drug absorption” (priority 2002, published 2006).
Read-outs that look alike come from different tables or passages of the source. Blank lines part the entries; values can stand above or below the compound they belong to. Peptide text beside a SMILES is read from it.

Key:
[1] = 2-hour (peak) antiretroviral drug levels in blood; conditions: for number of patients who did not increase their D4T levels / number of patients with an increase in their D4T levels: 15 patients on D4T; for number of patients whose 3TC levels did not improve / number of patients whose 3TC levels improved with therapy: 18 patients on 3TC; for drug levels improved, all ARV drugs including NNRTI and PI / mean percent improvement in antiretroviral drug levels / peak paired NRTI levels improved: after 7 days of study drug; for concentration at 2 h: blood, po, mean 2-hour drug level, oral ARV therapy; for number of patients whose AZT levels did not improve (of eight): 14 patients taking AZT
Excerpt: HUV positive patients on therapy presenting at the Hospital Sao Jose with diarrhea (≧3 stools/day×14 days) and wasting (loss of ≧10% of their body weight) from March 2001 to April 2002, were invited to participate. After informed consent, patients were assigned to one of four equi-nitrogenous blinded study groups including glycine controls (FIG. 1). Group A received 46 gm of oral glycine/day (Spectrum, Gardena, Calif.). Group B received 30 gm of oral glutamine/day (Cambridge Neutraceuticals, Cambridge, Mass.) and 15 gm of glycine, Group C received 4 grams alanyl-glutamine (Degussa/Creanova, Parsippany, N.J.) and 42 gm of glycine and Group D received 44 gm of alanyl-glutamine (Ala-Gln). The 44 gm alanyl-glutamine dose was calculated to contain equimolar glutamine to 30 gm of glutamine, and glycine was added to glutamine and low dose alanyl-glutamine groups to equalize the amount of nitrogen received by all participants.
Antiretroviral drug levels were determined at Tibotec-Virco, Mechelen, Belgium. Peak values were determined for each drug, and drug level ranges supplied by the manufacturer were used to define low levels. Viral genotype was determined by DNA sequencing at Visible Genetics, Suwanee, Ga. […] Two-tailed statistical analyses for comparison of paired values included Student's t-test and ANOVA and expressed as […] the standard deviation. Chi-square test or Fisher Exact test were used to compare proportions.

intestinal permeability = conditions: over 28 days, cited from earlier work
[2] = system: HIV positive patients with diarrhea and wasting; experiment: Clinical response by diarrhea frequency and consistency in AIDS patients with diarrhea and wasting; format: in vivo, human; conditions: 7 days; high dose Ala-Gln 44 gm/day; glycine controls 46 gm/day
Excerpt: Patients were asked daily about the frequency and consistency of their diarrhea and other gastrointestinal complaints including anorexia, vomiting, and abdominal cramping. Changes in frequency of diarrhea was scored as 0 if the total number of stools in the second half of the 9-day study was less than 2 fewer (or greater) than the number in the first half of the study (including the 2 days before study treatment was started); scored as − or +1 if stool frequencies were reduced or increased by 2 to 3, respectively; and − or +2 if the frequencies were reduced or increased by >3, respectively. In addition, consistencies were graded as liquid, soft or formed and scored as 0, 1 or 2 respectively and changes were added to the frequency scores above. Intestinal permeability was measured by urinary excretion of lactulose, mannitol and their ratio as previously described (Lima et al., Am J Gastroenterol 1997; 92(10):1861-1866). Lactulose and mannitol in urine was determined by high performance liquid chromatography (HPLC) and at Great Smokies Diagnostic Laboratory, Asheville, N.C.

[3] = system: small intestinal epithelial crypt cells (line IEC-6); experiment: IEC-6 cell migration after wounding (restitution model); format: cell-based; conditions: IEC-6 cells, 2.5 mmol/liter
Excerpt: In 1992, McCormack et al. established a model to study the process of cell migration involved in the early restitution of mucosal erosion. […] This model system is used in the present invention in order to show the important effect of stable glutamine derivatives on intestinal epithelial restitution. To investigate the ability of glutamine and stabilized glutamine derivatives to enhance the healing of mucosal tissues, a model system based on the migration of small intestinal epithelial crypt cells (line IEC-6) was used. The small epithelial crypt cell line (IEC-6 cells) was obtained from the American Type Culture Collection (Rockville, Md.). The medium consisted of Dullbecco's modified Eagle medium (DMEM) with 5% heat-inactivated FBS and 10 μg insulin and 50 μg gentamicin sulfate per milliliter. For the experiments, the cells were taken up with 0.25% trypsin plus 2.65 mM EDTA and plated at 6.25×10^4 cell/cm^2 in 35 mm dishes thinly coated with Matrigel according to the manufacturer's instructions. The cells were fed every other day. To initiate migration, the cell layer was scratched with a single razor blade cut to approximately 27 mm in length. The scratch began at the diameter of the dish and extended over an area 7 to 10 mm wide. After the scratch, the cells were washed twice with sterile PBS. Then, medium containing no supplemental substances or medium containing glutamine or alanyl-glutamine (2.5 mmol/liter) was replaced, and the dishes were returned to the incubator. The experiments were carried out in triplicate. After 6 hours, 8 hours, and 24 hours, the dishes were removed from the incubator, and photographed using an inverted phase contrast microscope attached with camera The migration cells in five contiguous 0.1-mm squares were counted at ×100 magnification beginning at the scratch line and extending as far out as the cells had migrated. The counting was done in the area of the highest migration rate by means of an eyepiece reticle.

[4] = compared with glutamine; cited from earlier work
[5] = system: salt and water absorption; conditions: compared with glucose; cited from earlier work
[6] = study patients with diarrhea and wasting
[7] = all study groups together, 18 on 3TC, 15 on D4T, 14 on AZT
[8] = high dose Ala-Gln, Gln, glycine
[9] = high dose Ala-Gln 44 gm/day, Gln 30 gm/day (+15 gm glycine), glycine 46 gm/day
[10] = high dose Ala-Gln 44 gm/day, Gln 30 gm/day (+15 gm glycine), glycine controls 46 gm/day
[11] = human, controls without diarrhea or wasting
[12] = human, study patients with diarrhea and wasting
[13] = high dose Ala-Gln, control group
[14] = low dose Ala-Gln 4 grams/day (+42 gm glycine)

- patients with drug levels below the expected range (low drug levels) ([1]; human, in vivo, 2 h): 20%
- number of patients whose level of this ARV drug improved with therapy ([1]; in vivo): seven
SMILES: Cc1cn([C@H]2C=C[C@@H](CO)O2)c(=O)[nH]c1=O [stavudine, reference compound]

- patients with drug levels below the expected range, in words [1, 6]: All
SMILES: CC(C)c1nc(CN(C)C(=O)N[C@H](C(=O)N[C@@H](Cc2ccccc2)C[C@H](O)[C@H](Cc2ccccc2)NC(=O)OCc2cncs2)C(C)C)cs1 [ritonavir, reference compound]

- number of patients whose level of this ARV drug improved with therapy [1, 7]: six
SMILES: Cc1cn([C@H]2C[C@H](N=[N+]=[N-])[C@@H](CO)O2)c(=O)[nH]c1=O [AZT, zidovudine, reference compound]

- patients with drug levels below the expected range (low drug levels) [1, 6]: 44%
SMILES: Cc1c(O)cccc1C(=O)N[C@@H](CSc1ccccc1)[C@H](O)CN1C[C@H]2CCCC[C@H]2C[C@H]1C(=O)NC(C)(C)C [nelfinavir, reference compound]

SMILES: NC(=O)CC[C@H](N)C(=O)O [Gln, glutamine]
- intestinal permeability (intestinal permeability; 4 g/day): less worsening
- absorption of mannitol (intestinal permeability; 8 g/day): improved
- intestinal permeability (intestinal permeability; 8 g/day): stabilization
- number of patients who did not increase their D4T levels [1, 8]: 3
- number of patients whose 3TC levels did not improve [1, 8]: 2
- number of patients whose 3TC levels improved with therapy [1, 8]: 2
- drug levels improved, all ARV drugs including NNRTI and PI [1, 9]: 57%
- mean percent improvement in antiretroviral drug levels [1, 10]: 14%
- peak paired NRTI levels improved [1, 10]: 64.3%

- patients with drug levels below the expected range (low drug levels) [1, 6]: 85%
SMILES: O=C1Nc2ccc(Cl)cc2[C@@](C#CC2CC2)(C(F)(F)F)O1 [efavirenz, reference compound]

- number of patients whose level of this ARV drug improved with therapy [1, 7]: 10
- concentration at 2 h [1, 11]: 2810 ng/mL
- concentration at 2 h [1, 12]: 1500 ng/mL
- patients with drug levels below the expected range, in words [1, 6]: All
SMILES: Nc1ccn([C@@H]2CS[C@H](CO)O2)c(=O)n1 [3TC, lamivudine, reference compound]

SMILES: NCC(=O)O [glycine, reference compound]
- number of patients whose AZT levels did not improve (of eight) [1, 13]: half
- number of patients who did not increase their D4T levels [1, 8]: 2
- number of patients whose 3TC levels did not improve [1, 8]: 3
- number of patients whose 3TC levels improved with therapy [1, 8]: 2
- drug levels improved, all ARV drugs including NNRTI and PI [1, 9]: 20%
- mean percent improvement in antiretroviral drug levels [1, 10]: −32%
- peak paired NRTI levels improved [1, 10]: 15.4%
- patients improved (diarrhea frequency and consistency) [2]: 38%

- concentration at 2 h [1, 11]: 737 ± 226 ng/mL
- concentration at 2 h [1, 12]: 397 ± 151 ng/mL
- patients with drug levels below the expected range, in words [1, 6]: All
SMILES: O=c1[nH]cnc2c1ncn2[C@H]1CC[C@@H](CO)O1 [ddI, didanosine, reference compound]

SMILES: C[C@H](N)C(=O)N[C@@H](CCC(N)=O)C(=O)O [Ala-Gln, alanyl-glutamine] (H-Ala-Gln-OH)
- cell migration compared to control ([3]; 6 hours, 8 hours, and 24 hours after the scratch): significantly enhanced cell migration
- cell migration increase related to control ([3]; 8 hours after the scratch): 107%
- cell migration increase related to control ([3]; 24 hours after the scratch): 173%
- enhancement of cell migration, more than glutamine ([3]; after 6 hours): 46%
- enhancement of cell migration, more than glutamine ([3]; after 8 hours): 55%
- number of patients whose AZT levels did not improve (of eight) [1, 13]: 1
- number of patients whose AZT levels did not improve (of eight) ([1]; low dose Ala-Gln): 3
- number of patients with an increase in their D4T levels ([1]; high dose Ala-Gln): 3
- number of patients who did not increase their D4T levels [1, 8]: 1
- number of patients who did not increase their D4T levels ([1]; low dose Ala-Gln): 2
- number of patients with an increase in their D4T levels ([1]; low dose Ala-Gln): 3
- number of patients whose 3TC levels did not improve [1, 8]: none
- number of patients whose 3TC levels improved with therapy [1, 8]: 2
- number of patients whose 3TC levels did not improve ([1]; low dose Ala-Gln): 3
- number of patients whose 3TC levels improved with therapy ([1]; low dose Ala-Gln): 4
- drug levels improved, all ARV drugs including NNRTI and PI [1, 9]: 63%
- mean percent improvement in antiretroviral drug levels [1, 10]: 113%
- peak paired NRTI levels improved [1, 10]: 75%
- drug levels improved, all ARV drugs including NNRTI and PI [1, 14]: 50%
- mean percent improvement in antiretroviral drug levels [1, 14]: 8%
- peak paired NRTI levels improved [1, 14]: 55%
- stability in acidic water solutions [4]: much more stable
- drive of salt and water absorption [5]: comparable to, if not better, than glucose
- patients improved (diarrhea frequency and consistency) [2]: 89%

- patients with drug levels below the expected range, in words ([1]; in vivo): All
SMILES: CC(C)(C)NC(=O)[C@@H]1C[C@@H]2CCCC[C@@H]2CN1C[C@@H](O)[C@H](Cc1ccccc1)NC(=O)[C@H](CC(N)=O)NC(=O)c1ccc2ccccc2n1 [saquinavir, reference compound]
